Results: patent US9617289B2, “RSV antiviral compounds” (JANSSEN R&D IRELAND, priority 2012, dated 2017)
Structures can show the parent of a compound that is named as a salt.

Tested on: rgRSV224 virus
Assay: Antiviral activity: inhibition of rgRSV224 (GFP-expressing RSV) replication in HeLa cells
Assay type: cell-based, respiratory syncytial virus
Conditions: human respiratory syncytial virus, HeLa, 72 h, read-out: pEC50, rgRSV224 (MOI=0.02) in HeLa cells, GFP expression three days post-virus exposure (converted)
Procedure: Black 96-well clear-bottom microtiter plates (Corning, Amsterdam, The Netherlands) were filled in duplicate using a customized robot system with serial 4-fold dilutions of compound in a final volume of 50 μl culture medium [RPMI medium without phenol red, 10% FBS, 0.04% gentamycin (50 mg/ml) and 0.5% DMSO]. Then, 100 μl of a HeLa cell suspension (5×10^4 cells/ml) in culture medium was added to each well followed by the addition of 50 μl rgRSV224 (MOI=0.02) virus in culture medium using a multidrop dispenser (Thermo Scientific, Erembodegem, Belgium). rgRSV224 virus is an engineered virus that includes an additional GFP gene (Hallak et al, 2000) and was in-licensed from the NIH (Bethesda, Md., USA). Medium, virus- and mock-infected controls were included in each test. Cells were incubated at 37° C. in a 5% CO2 atmosphere. Three days post-virus exposure, viral replication was quantified by measuring GFP expression in the cells by a MSM laser microscope (Tibotec, Beerse, Belgium). The EC50 was defined as the 50% inhibitory concentration for GFP expression. In parallel, compounds were incubated for three days in a set of white 96-well microtitier plates (Corning) and the cytotoxicity of compounds in HeLa cells was determined by measuring the ATP content of the cells using the ATPlite kit (PerkinElmer, Zaventem, Belgium) according to the manufacturer's instructions. The CC50 was defined as the 50% concentration for cytotoxicity. SI is calculated as CC50/EC50.

`O=C1N(Cc2nc3nc(Cl)ccc3n2CCCC(F)(F)F)c2cnccc2C12CCCC2` [Compound 65, 1′-((5-chloro-1-(4,4,4-trifluorobutyl)-1H-imidazo[4,5-b]-pyridin-2-yl)methyl)spiro[cyclopentane-l,3′-pyrrolo[2,3-c]-pyridin]-2′(1′H)-one] and `CC(C)(C)OC(=O)N1CCC2(CC1)C(=O)N(Cc1nc3nc(Cl)ccc3n1CCCC(F)(F)F)c1cnccc12` [Compound 68, tert-butyl-1′-((5-chloro-1-(4,4,4-trifluorobutyl)-1H-imidazo-[4,5-b]pyridin-2-yl)methyl)-2′-oxo-1′,2′-dihydrospiro-[piperidine-4,3′-pyrrolo[2,3-c]pyridine]-1-carboxylate] are within 1.5-fold of each other in EC50: 0.631 nM for the first, 0.501 nM for the second.

Going from `CC(C)(C)OC(=O)N1CCC2(CC1)C(=O)N(Cc1nc3ncccc3n1CCCC(F)(F)F)c1cnccc12` [Compound 66, tert-butyl-2′-oxo-1′-((1-(4,4,4-trifluorobutyl)-1H-imidazo-[4,5-b]pyridine-2-yl)methyl)-1′,2′-dihydrospiro[piperidine-4,3′-pyrrolo[2,3-c]pyridine]-1-carboxylate] to `CC(C)(C)OC(=O)N1CCC2(CC1)C(=O)N(Cc1cc3nc(Cl)ccc3n1CCCCF)c1cnccc12` [Compound 69, tert-butyl 1′-((5-chloro-1-(4-fluorobutyl)-1H-pyrrolo[3,2-b]-pyridin-2-yl)methy)-2′-oxo-1′,2′-dihydrospiro[piperidine-4,3′-pyrrolo[2,3-c]pyridine]-1-carboxylate], the EC50 rises from 3.16 nM to 5.01 nM (1.6-fold).

Going from `CC(C)(O)C(=O)N1CCC2(CC1)C(=O)N(Cc1cc3cc(Cl)ccc3n1CCCS(C)(=O)=O)c1cnccc12` [Compound 74, 1′-((5-chloro-1-(3-(methylsulfonyl)propyl)-1H-indol-2-yl)-methyl)-1-(2-hydroxy-2-methylpropanoyl)spiro[piperidine-4,3′-pyrrolo[2,3-c]pyridin]-2′(1′H)-one] to `CC(C)(O)C(=O)N1CCC2(CC1)C(=O)N(Cc1cc3cc(Cl)ccc3n1CCCC#N)c1cnccc12` [Compound 86, 4-(5-chloro-2-((1-(2-hydroxy-2-methylpropanoyl)-2′-oxospiro[piperidine-4,3′-pyrrolo[2,3-c]pyridin]-1′(2′H)-yl)methyl)-1H-indol-1-yl)butanenitrile], the EC50 falls from 0.2 nM to less than 0.158 nM.

`COC(=O)N1CCC2(CC1)C(=O)N(Cc1cc3cc(Cl)ccc3n1CCCC#N)c1cnccc12` [Compound 76] and `CC(C)OC(=O)N1CCC2(CC1)C(=O)N(Cc1cc3cc(Cl)ccc3n1CCCC#N)c1cnccc12` [Compound 77, isopropyl 1′-((5-chloro-1-(3-cyanopropyl)-1H-indol-2-yl)-methyl)-2′-oxo-1′,2′-dihydrospiro[piperidine-4,3′-pyrrolo-[2,3-c]pyridine]-1-carboxylate] cannot be ordered by EC50: less than 0.158 nM for the first, less than 0.158 nM for the second.

`N#CCCCn1c(CN2C(=O)C3(CCNCC3)c3ccncc32)cc2cc(Cl)ccc21` [Compound 78, 4-(5-chloro-2-((2′-oxospiro[piperidine-4,3′-pyrrolo[2,3-c]-pyridin]-1′(2′H)-yl)methyl)-1H-indol-1-yl)butanenitrile hydrochloride] and `N#CCCCn1c(CN2C(=O)C3(CCNCC3)c3ccncc32)nc2cc(Cl)ccc21` [Compound 84, 4-(5-chloro)-2-((2′-oxospiro[piperidine-4,3′-pyrrolo[2,3-c]-pyridin]-1′(2′H)-yl)methyl)-1H-benzo[d]imidazol-1-yl)butanenitrile hydrochloride] are the same in EC50: 0.631 nM for the first, 0.631 nM for the second.

With `CC(=O)N1CC2(C1)C(=O)N(Cc1nc3cc(Cl)ccc3n1CCCC#N)c1ccccc12` [Compound 88, 4-(2-((1-acetyl-2′-oxospiro[azetidine-3,3′-indolin]-1′-yl)-methyl)-5-chloro-1H-benzo[d]imidazol-1-yl)butanenitrile] the EC50 was 0.398 nM.

Same assay, conditions: rgRSV224 (MOI=0.02) in HeLa cells, GFP expression three days post-virus exposure

`O=C1N(Cc2nc3nc(Cl)ccc3n2CCCC(F)(F)F)c2cnccc2C12CCOCC2` [Compound 67, 1′-((5-chloro-1-(4,4,4-trifluorobutyl)-1H-imidazo[4,5-b]-pyridin-2-yl)methyl)-2,3,5,6-tetrahydrospiro[pyran-4,3′-pyrrolo[2,3-c]pyridin]-2′(1′H)-one] gave a pEC50 of 10.3.
